Experimental data as given in patent US8673914B2, “Use of phosphodiesterase inhibitors for treating multidrug resistance” (St. John's University, priority 2011, dated 2014).
Read-outs that look alike come from different tables or passages of the source. Marks after values point to notes of the source that are not given here.

How the values were obtained:
S1/FLV5000 = experiment: cells; assay type: cell-based
Experimental: (§1) The ABCB1-overexpressing drug resistant cell line KB-V1 (generously provided by Dr. Gottesman, NCI, NIH) was established by a stepwise concentration increase of vinblastine in the culture medium of KB-3-1 cells and subsequently culturing these cells in medium with 1 μg/mL of vinblastine. An ABCC1-overexpressing MDR cell line, KB-CV60, was also derived from KB-3-1 cells and was maintained in medium with 1 μg/mL of cepharanthine and 60 ng/mL of vincristine. Both KB-C2 and KB-CV60 cell lines were kindly provided by Dr. Akiyama (Kagoshima University, Japan). HEK293/pcDNA3.1, ABCG2-482-R5, ABCG2-482-G2, and ABCG2-482-T7 cells were established by selection with 2 mg/mL G418 after transfecting HEK293 with either (1) empty pcDNA3.1 vector or (2) pcDNA3.1 vector containing full length ABCG2 coding either (2a) wild-type arginine (R) or mutant (2b) glycine (G) or (2c) threonine (T) at amino acid position 482, respectively. The wild-type ABCG2-overexpressing drug-resistant cell line MCF-7/Flv1000 was cultured in the medium with 1 μM of flavopiridol. […] Another G482 mutant ABCG2-overexpressing drug resistant cell line, S1-M1-80, was maintained in the medium with 80 μM of mitoxantrone. […] All the cell lines were grown as adherent monolayers in flasks with DMEM (Dulbecco's modified Eagle's medium) culture medium (Hyclone Co.) containing 10% bovine serum at 37° C. in a humidified atmosphere of 5% CO2.
(§2) Cells in 96-well plates were preincubated with or without the reversal agents for 1 h and then different concentrations of chemotherapeutic drugs were added into designated wells. After 68 h of incubation, MTT solution (4 mg/mL) was added to each well, and the plate was further incubated for 4 h, allowing viable cells to change the yellow-colored MTT into dark-blue formazan crystals. Subsequently the medium was discarded, and […] of DMSO was added into each well to dissolve the formazan crystals. The absorbance was determined at 570 nm by an OPSYS MR Microplate Reader from DYNEX Technologies, Inc.

MCF7/ADVP3000 = experiment: MTT cytotoxicity/reversal assay (Example 2); assay type: cell-based; details: alone
Experimental: as §1, §2

MCF-7/Flv1000 = experiment: MTT cytotoxicity/reversal assay (Example 2); assay type: cell-based
Experimental: as §1, §2

MCF-7 = experiment: MTT cytotoxicity/reversal assay (Example 2); assay type: cell-based
Experimental: as §1, §2

HEK293/pcDNA3 = experiment: MTT cytotoxicity/reversal assay (Example 2); assay type: cell-based; details: alone
Experimental: as §1, §2

S1-M1-80 = experiment: MTT cytotoxicity/reversal assay (Example 2); assay type: cell-based; details: alone
Experimental: as §1, §2

S1 = experiment: MTT cytotoxicity/reversal assay (Example 2); assay type: cell-based; details: alone
Experimental: as §1, §2

ABCG2-482-R2 (ABCG2) = experiment: MTT cytotoxicity/reversal assay (Example 1)
Experimental: (§3) The KB-C2 and KB-3-1 were kindly provided by Dr. Akiyama (Kagoshima University, Japan). HEK293-pcDNA3.1 and wild-type HEK/ABCG2 transfected cells were established by selection with G418 after transfecting HEK293 with either (1) empty pcDNA3.1 vector or (2) pcDNA3.1 vector containing full length of ABCG2 coding arginine (R) at amino acid position 482, and were then cultured in a medium with 2 mg/ml of G418 (ABCG2-482-R2 cells). Similarly, the HEK/MRP1 (ABCC1) and HEK/ABCB1 cells were generated by transfecting the HEK293 cells with either the MRP1 expression vector or the ABCB1 expression vector. All of the cell lines were grown in Dulbecco's modified Eagle's medium (DMEM) supplemented with 10% bovine serum, 100 units/ml penicillin, and […] streptomycin in a humidified incubator containing 5% CO2 at 37° C.
(§4) The MTT assay was used to assess cytotoxicity. The cultured cells were harvested with trypsin and resuspended in a final concentration of 4×10^3 cells/well for KB-3-1; 7.5×10^3 cells/well for KB-C2; and 8×10^3 for all of the other cell lines used in this study. Cells were seeded evenly in 96-well multiplates. […] After 68 h of incubation, 20 μl of the MTT solution (4 mg/ml) was added to each well, and the plate was further incubated for 4 h at 37° C., allowing viable cells to convert the yellow-colored MTT into dark-blue formazan crystals. Subsequently, the medium was discarded, and 100 μl of DMSO was added into each well to dissolve the formazan crystals, generating purple color. The absorbance was determined at 570 nm by an OPSYS Microplate Reader from DYNEX Technologies, Inc. (Chantilly, Va.). […] The degree of the reversal of multidrug resistance (MDR) was calculated by dividing the IC50 of an anticancer drug, e.g., an antineoplastic or chemotherapeutic drug (agent, compound), in a cell type in the absence of a reversal agent by the IC50 of the anticancer drug in the same cell type in the presence of the reversal agent. The IC50 values were calculated from survival curves using the Bliss method.

HEK/ABCG2-T7 = experiment: MTT cytotoxicity/reversal assay (Example 2)
Experimental: as §1, §2

HEK/ABCG2-G2 = experiment: MTT cytotoxicity/reversal assay (Example 2)
Experimental: as §1, §2

HEK/ABCG2-R5 = experiment: MTT cytotoxicity/reversal assay (Example 2)
Experimental: as §1, §2

HEK293/pcDNA3.1 = experiment: MTT cytotoxicity/reversal assay (Example 1); assay type: cell-based; details: HEK293/pcDNA3.1, alone
Experimental: as §3, §4

[1] = Homo sapiens, read-out: IC50 of flavopiridol
[2] = Homo sapiens, read-out: IC50 of mitoxantrone

`CCc1c2c(nc3ccc(O)cc13)-c1cc3c(c(=O)n1C2)COC(=O)[C@]3(O)CC` [SN-38, 7-ethyl-10-hydroxy-20(S)-camptothecin] was tested, and the “fold-resistance, SN-38” value (S1/FLV5000; S1/FLV5000, alone) was “(1.4)”, the IC50 (S1/FLV5000; S1/FLV5000, alone, read-out: IC50 of SN-38) was 344 ± 87.4 nM and the “fold-resistance, SN-38” value (MCF7/ADVP3000) was “(11.3)”. For the same compound, the IC50 (MCF7/ADVP3000; read-out: IC50 of SN-38) was 14300 ± 1620 nM, the “fold-resistance, SN-38” value (MCF-7/Flv1000; MCF-7/Flv1000, alone) was “(18.7)” and the IC50 (MCF-7/Flv1000; MCF-7/Flv1000, alone, read-out: IC50 of SN-38) was 22800 ± 2000 nM. For the same compound, the “fold-resistance, SN-38” value (MCF-7; alone) was “(1.0)^c”, the IC50 (MCF-7; alone, read-out: IC50 of SN-38) was 1220 ± 263 nM and the “fold-resistance, SN-38” value (HEK293/pcDNA3) was “(1.0)^c”. For the same compound, the IC50 (HEK293/pcDNA3; read-out: IC50 of SN-38) was 5.8 ± 0.2 nM, the “fold-resistance, SN-38” value (S1-M1-80) was “(14.4)” and the IC50 (S1-M1-80; read-out: IC50 of SN-38) was 3550 ± 1400 nM. The “fold-resistance, SN-38” value (S1) was “(1.0)^c”, the IC50 (S1; read-out: IC50 of SN-38) was 245 ± 17 nM and the “fold reversal, SN-38” value (ABCG2-482-R2 (ABCG2); alone) was “(1.00)”. The IC50 (ABCG2-482-R2 (ABCG2); read-out: IC50 of SN-38, alone) was 3650 ± 547 nM, the “fold-resistance, SN-38” value (HEK/ABCG2-T7; HEK/ABCG2-T7, alone) was “(20.2)” and the IC50 (HEK/ABCG2-T7; read-out: IC50 of SN-38, HEK/ABCG2-T7, alone) was 117 ± 70.4 nM. The “fold-resistance, SN-38” value (HEK/ABCG2-G2; HEK/ABCG2-G2, alone) was “(2.3)”, the IC50 (HEK/ABCG2-G2; read-out: IC50 of SN-38, HEK/ABCG2-G2, alone) was 204 ± 136 nM and the “fold-resistance, SN-38” value (HEK/ABCG2-R5; HEK/ABCG2-R5, alone) was “(22.1)”. The IC50 (HEK/ABCG2-R5; read-out: IC50 of SN-38, HEK/ABCG2-R5, alone) was 128 ± 88.2 nM, the “fold reversal, SN-38” value (HEK293/pcDNA3.1) was “(1.00)” and the IC50 (HEK293/pcDNA3.1; read-out: IC50 of SN-38) was 116 ± 15.1 nM.

In the case of `CN1CC[C@H](c2c(O)cc(O)c3c(=O)cc(-c4ccccc4Cl)oc23)[C@H](O)C1` [Flavopiridol, flavopiridol], the “fold-resistance, flavopiridol” value (S1/FLV5000; S1/FLV5000, alone) is reported as “(64.9)”, the IC50 (S1/FLV5000; S1/FLV5000, alone, read-out: IC50 of flavopiridol) is reported as 6200 ± 463 nM and the IC50 (MCF7/ADVP3000; [1]) is reported as 3900 ± 414 nM. For the same compound, the “fold-resistance, flavopiridol” value (MCF7/ADVP3000) was “(11.3)”, the “fold-resistance, flavopiridol” value (MCF-7/Flv1000; MCF-7/Flv1000, alone) was “(19.9)” and the IC50 (MCF-7/Flv1000; MCF-7 FLV1000, read-out: IC50 of flavopiridol) was 6860 ± 479 nM. For the same compound, the IC50 (MCF-7; Homo sapiens, MCF7, alone, read-out: IC50 of flavopiridol) was 344.3 ± 2.1 nM, the “fold-resistance, flavopiridol” value (MCF-7; alone) was “(1.0)^c” and the IC50 (HEK293/pcDNA3; [1]) was 164 ± 17.1 nM. The “fold-resistance, flavopiridol” value (HEK293/pcDNA3) was “(1.0)^c”, the IC50 (S1-M1-80; [1]) was 699 ± 47 nM and the “fold-resistance, flavopiridol” value (S1-M1-80) was “(7.3)”. For the same compound, the “fold-resistance, flavopiridol” value (S1) was “(1.0)^c”, the IC50 (S1; read-out: IC50 of flavopiridol) was 96.1 ± 9.6 nM and the “fold-resistance, flavopiridol” value (HEK/ABCG2-T7) was “(4.6)”. For the same compound, the “fold-resistance, flavopiridol” value (HEK/ABCG2-G2) was “(2.4)” and the “fold-resistance, flavopiridol” value (HEK/ABCG2-R5) was “(1.7)”.

With `O=C1c2c(O)ccc(O)c2C(=O)c2c(NCCNCCO)ccc(NCCNCCO)c21` [Mitoxantrone, mitoxantrone] the “fold-resistance, mitoxantrone” value (S1/FLV5000) was “(3.0)”, the IC50 (S1/FLV5000; S1/FLV5000, alone, read-out: IC50 of mitoxantrone) was 1120 ± 144 nM and the IC50 (MCF7/ADVP3000; [2]) was 279000 ± 6030 nM. The “fold-resistance, mitoxantrone” value (MCF7/ADVP3000) was “(36.4)”, the “fold-resistance, mitoxantrone” value (MCF-7/Flv1000; MCF-7/Flv1000, alone) was “(66.7)” and the IC50 (MCF-7/Flv1000; MCF-7/Flv1000, alone, read-out: IC50 of mitoxantrone) was 511000 ± 16700 nM. The IC50 (MCF-7; Homo sapiens, MCF7, alone, read-out: IC50 of mitoxantrone) was 7660 ± 193 nM, the “fold-resistance, mitoxantrone” value (MCF-7; alone) was “(1.0)^c” and the IC50 (HEK293/pcDNA3; [2]) was 35.6 ± 3 nM. The “fold-resistance, mitoxantrone” value (HEK293/pcDNA3) was “(1.0)^c”, the IC50 (S1-M1-80; [2]) was 224000 ± 8600 nM and the “fold-resistance, mitoxantrone” value (S1-M1-80) was “(559.3)”. The “fold-resistance, mitoxantrone” value (S1) was “(1.0)^c”, the IC50 (S1; read-out: IC50 of mitoxantrone) was 380 ± 41.6 nM and the “fold-resistance, mitoxantrone” value (HEK/ABCG2-T7; HEK/ABCG2-T7, alone) was “(23.7)”. For the same compound, the “fold-resistance, mitoxantrone” value (HEK/ABCG2-G2; HEK/ABCG2-G2, alone) was “(31.0)” and the “fold-resistance, mitoxantrone” value (HEK/ABCG2-R5; HEK/ABCG2-R5, alone) was “(12.8)”.
